Results reported in patent US11225503B2, “Crystobactamides” (HELMHOLTZ-ZENTRUM FÜR INFEKTIONSFORSCHUNG GMBH, priority 2013, dated 2022).
Converted amounts (≈) assume the structure as drawn. Bridge positions count the residues as written; N and C are the ends. Square brackets hold non-standard residues; d marks the D form. Peptide text beside a SMILES is read from it. * marks the point of attachment. Ileψ(thiazoline)Cys = CC[C@H](C)[C@H](N)C1=N[C@H](C(=O)*)CS1; dOrn = NCCC[C@@H](N)C(=O)O

Assays:
Format in all cases: cell-based
[1] = system: Cystobacter velatus MCy8071; experiment: Antibiotic resistance of the producer strain; details: final concentration of all antibiotics 50 μg ml^−1
Procedure: MCy8071 is resistant against the following antibiotics: ampicillin, gentamycin, hygromycin, polymycin, bacitracin, spectinomycin, neomycin, and fusidinic acid. Weak growth is possible with cephalosporin and kasugamycin and no growth is possible with thiostrepton, trimethoprin, kanamycin, and oxytetracycline (final concentration of all antibiotics was adjusted to 50 μg ml^−1).

[2] = system: Chinese hamster ovary CHO-K1 cells; experiment: in vitro
Procedure: Human HCT-116 colon carcinoma cells (CCL-247) were obtained from the American Type Culture Collection (ATCC) and Chinese hamster ovary CHO-K1 cells (ACC-110) were obtained from the German Collection of Microorganisms and Cell Cultures (DSMZ). Both cell lines were cultured under the conditions recommended by the respective depositor. Primary HUVEC (human umbilical vein endothelial cells; single donor) were purchased from PromoCell (Heidelberg, Germany) and cultured in Endothelial Cell Growth Medium (PromoCell) containing the following supplements: 2% FCS, 0.4% ECGS, 0.1 ng/ml EGF, 1 ng/ml bFGF, 90 μg/ml heparin, 1 μg/ml hydrocortisone.
(§1) Cells were seeded at 6×10^3 cells per well of 96-well plates (Corning CellBind®) in complete medium (180 μl) and directly treated with cystobactamides dissolved in methanol in a serial dilution. Compound were tested in duplicate for 5 d, as well as the internal solvent control. After 5 d incubation, 5 mg/ml MTT in PBS (20 μL) was added per well and it was further incubated for 2 h at 37° C.[7] The medium was then discarded and cells were washed with PBS (100 μl) before adding 2-propanol/10N HCl (250:1, v/v; 100 μl) in order to dissolve formazan granules. The absorbance at 570 nm was measured using a microplate reader (EL808, Bio-Tek Instruments Inc.).

[3] = system: several microorganisms and cell lines; experiment: Biological evaluation, summary statements over the MIC and cytotoxicity tests; details: A. baumannii and P. aeruginosa
Procedure: as §1
(§2) MIC values were determined in microdilution assays. Overnight cultures were diluted in the appropriate growth medium to achieve an inoculum of 10^4-10^6 cfu/mL. Yeasts were grown in Myc medium (1% phytone peptone, 1% glucose, 50 mM HEPES, pH 7.0), S. pneumonia and E. faecalis in tryptic soy broth (TSB: 1.7% peptone casein, 0.3% peptone soymeal, 0.25% glucose, 0.5% NaCl, 0.25% K2HPO4; pH 7.3); M. smegmatis in Middlebrook 7H9 medium supplemented with 10% Middlebrook ADC enrichment and 2 ml/l glycerol). All other listed bacteria were grown in Müller-Hinton broth (0.2% beef infusion solids, 1.75% casein hydrolysate, 0.15% starch, pH 7.4). Cystobactamides and reference drugs were added directly to the cultures in sterile 96-well plates as duplicates and serial dilutions were prepared. Microorganisms were grown on a microplate shaker (750 rpm, 30-37° C., 18-48 h), except S. pneumonia, which was grown at non-shaking conditions (37° C., 5% CO2, 18 h). Growth inhibition was assessed by visual inspection and the MIC was defined as the lowest concentration of compound that inhibited visible growth.

[4] = system: E. coli strain WT III (marR Δ74 bp); experiment: Susceptibility of mutant E. coli strains, MIC
Procedure: (§3) Bacterial wildtype strains used in susceptibility assays were either part of our strain collection or purchased from the German Collection of Microorganisms and Cell Cultures (DSMZ) or from the American Type Culture Collection (ATCC). E. coli strain WT^[6] and E. coli mutants were kindly provided by Prof. Dr. P. Heisig, Pharmaceutical Biology and Microbiology, University of Hamburg.
as §2

[5] = system: Escherichia coli DSM-1116; experiment: Susceptibility testing, MIC microdilution; details: Escherichia coli DSM-1116
Procedure: as §3, §2

[6] = system: Pseudomonas aeruginosa PA14; experiment: Susceptibility testing, MIC microdilution
Procedure: as §3, §2

[7] = system: Escherichia coli DSM-26863 (tolC3); experiment: Susceptibility testing, MIC microdilution; details: Escherichia coli DSM-26863 (tolC3)
Procedure: as §3, §2

For `CC[C@H](C)[C@H](N)C1=N[C@H](C(=O)N[C@@H](CC(C)C)C(=O)N[C@H](CCC(=O)O)C(=O)N[C@H](C(=O)N[C@H]2CCCCNC(=O)[C@H](CC(N)=O)NC(=O)[C@@H](CC(=O)O)NC(=O)[C@H](Cc3cnc[nH]3)NC(=O)[C@@H](Cc3ccccc3)NC(=O)[C@H]([C@@H](C)CC)NC(=O)[C@@H](CCCN)NC2=O)[C@@H](C)CC)CS1` [bacitracin] ({Ileψ(thiazoline)Cys}-L[dE]IK[dOrn]I[dF]H[dD]N; lactam 4-C), the “growth of strain MCy8071 in presence of the antibiotic” value (from here on “growth of strain MCy8071”) [1] was “resistant”.

`CN[C@@H]1[C@H](O)[C@H](NC)[C@H]2O[C@@]3(O)C(=O)C[C@@H](C)O[C@H]3O[C@@H]2[C@H]1O` [spectinomycin] was tested, and the “growth of strain MCy8071” value [1] was “resistant”.

In the case of `COc1cc(Cc2cnc(N)nc2N)cc(OC)c1OC` [trimethoprin], the “growth of strain MCy8071” value [1] is reported as “no growth”.

For `CC1(C)S[C@@H]2[C@H](NC(=O)[C@H](N)c3ccccc3)C(=O)N2[C@H]1C(=O)O` [ampicillin], the “growth of strain MCy8071” value [1] was “resistant”.

polymycin was tested, and the “growth of strain MCy8071” value [1] was “resistant”.

`COc1cc(C(=O)O)ccc1NC(=O)c1ccc(NC(=O)c2ccc(NC(=O)C(NC(=O)c3ccc(NC(=O)c4ccc([N+](=O)[O-])cc4)cc3)C(OC)C(N)=O)cc2)c(OC(C)C)c1O` (stereo not shown) [cystobactamide G] was tested, and the GI50 [2] was 37 to 111 µM, the “inhibition of pathogenic Gram-negative strains A. baumannii and P. aeruginosa (MIC range)” value [3] was “low μg/ml range” and the “MIC, in words” value ([4]; E. coli WT III) was “in the μg/ml range”. It also gave an MIC ([4]; Escherichia coli WTIII [marRΔ74bp]) of 3.6 µg/mL (≈ 4.04 µM), an MIC [5] of 0.9 µg/mL (≈ 1.01 µM) and an MIC [6] of 7.1 µg/mL (≈ 7.96 µM). The MIC [7] was 0.9 µg/mL (≈ 1.01 µM).

With neomycin the “growth of strain MCy8071” value [1] was “resistant”.
